From ChEMBL document CHEMBL1159270, “Bruceosides D, E, and F, three new cytotoxic quassinoid glucosides from Brucea javanica” (1995)

Columns and labels:
Type in all cases: functional
[1] = system: SK-MEL-2; assay: Growth inhibition of human SK-MEL-2 cells
[2] = system: U-251; assay: Growth inhibition of human U251 cells
[3] = system: OVCAR-8; assay: Growth inhibition of human OVCAR8 cells
[4] = system: BT-549; assay: Growth inhibition of human BT549 cells
[5] = Growth inhibition of human Hs 578T cells
[6] = system: MDA-MB-231; assay: Growth inhibition of human MDA-MB-231 cells
[7] = system: T47D; assay: Growth inhibition of human T47D cells
[8] = Growth inhibition of human MCF7/ADR cells; conditions: NCI/ADR-RES
[9] = system: SF-268; assay: Growth inhibition of human SF268 cells
[10] = system: COLO 205; assay: Growth inhibition of human COLO205 cells
[11] = system: A549; assay: Growth inhibition of human A549 cells
[12] = system: HCC 2998; assay: Growth inhibition of human HCC2998 cells
[13] = system: HOP-62; assay: Growth inhibition of human HOP62 cells
[14] = system: OVCAR-4; assay: Growth inhibition of human OVCAR4 cells
[15] = system: UACC-257; assay: Growth inhibition of human UACC257 cells
[16] = system: HOP-92; assay: Growth inhibition of human HOP92 cells
[17] = system: RXF 393; assay: Growth inhibition of human RXF393 cells
[18] = system: 786-0; assay: Growth inhibition of human 786-0 cells
[19] = system: OVCAR-3; assay: Growth inhibition of human OVCAR-3 cells
[20] = system: HT-29; assay: Growth inhibition of human HT-29 cells
[21] = system: SK-OV-3; assay: Growth inhibition of human SKOV3 cells
[22] = system: SK-MEL-28; assay: Growth inhibition of human SK-MEL-28 cells
[23] = system: DU-145; assay: Growth inhibition of human DU145 cells
[24] = system: SNB-75; assay: Growth inhibition of human SNB75 cells
[25] = system: TK-10; assay: Growth inhibition of human TK10 cells
[26] = system: MDA-N; assay: Growth inhibition of human MDA-N cells
[27] = system: PC-3; assay: Growth inhibition of human PC3 cells
[28] = system: K562; assay: Growth inhibition of human K562 cells
[29] = system: HCT-15; assay: Growth inhibition of human HCT15 cells
[30] = system: M14; assay: Growth inhibition of human M14 cells
[31] = system: LOX IMVI; assay: Growth inhibition of human LOXIMVI cells
[32] = system: SF-539; assay: Growth inhibition of human SF539 cells
[33] = system: MCF7; assay: Growth inhibition of human MCF7 cells
[34] = system: EKVX; assay: Growth inhibition of human EKVX cells
[35] = system: Malme-3M; assay: Growth inhibition of human MALME-3M cells
[36] = system: SN12C; assay: Growth inhibition of human SN12C cells
[37] = system: CCRF-CEM; assay: Growth inhibition of human CCRF-CEM cells
[38] = system: NCI-H522; assay: Growth inhibition of human NCI-H522 cells
[39] = system: SNB-19; assay: Growth inhibition of human SNB19 cells
[40] = system: HL-60(TB); assay: Growth inhibition of human HL-60(TB) cells
[41] = system: NCI-H322M; assay: Growth inhibition of human NCI-H322M cells
[42] = system: SR; assay: Growth inhibition of human SR cells
[43] = system: SK-MEL-5; assay: Growth inhibition of human SK-MEL-5 cells
[44] = system: OVCAR-5; assay: Growth inhibition of human OVCAR5 cells
[45] = system: CAKI-1; assay: Growth inhibition of human Caki1 cells
[46] = system: NCI-H460; assay: Growth inhibition of human NCI-H460 cells
[47] = system: IGROV-1; assay: Growth inhibition of human IGROV1 cells
[48] = system: MDA-MB-435; assay: Growth inhibition of human MDA-MB-435 cells
[49] = system: A498; assay: Growth inhibition of human A498 cells
[50] = system: UO-31; assay: Growth inhibition of human UO31 cells
[51] = system: NCI-H226; assay: Growth inhibition of human NCI-H226 cells
[52] = system: ACHN; assay: Growth inhibition of human ACHN cells
[53] = system: KM12; assay: Growth inhibition of human KM12 cells
[54] = system: SW-620; assay: Growth inhibition of human SW620 cells
[55] = system: HCT-116; assay: Growth inhibition of human HCT116 cells
[56] = system: UACC-62; assay: Growth inhibition of human UACC62 cells
[57] = system: NCI-H23; assay: Growth inhibition of human NCI-H23 cells
[58] = system: MOLT-4; assay: Growth inhibition of human MOLT4 cells

SMILES: CC(C)=CC(=O)O[C@H]1C(=O)O[C@@H]2C[C@H]3[C@H](C)C(=O)C(O[C@@H]4O[C@H](CO)[C@@H](O)[C@H](O)[C@H]4O)=C[C@]3(C)[C@H]3[C@@H](O)[C@H](O)[C@]4(C(=O)O)OC[C@]32[C@@H]14 [BRUCEOSIDE D]
- GI50 [1]: > 100 µM
- GI50 [2]: 39.8 µM
- GI50 [3]: > 100 µM
- GI50 [4]: > 100 µM
- GI50 [5]: > 100 µM
- GI50 [6]: > 100 µM
- GI50 [7]: > 100 µM
- GI50 [8]: > 100 µM
- GI50 [9]: > 100 µM
- GI50 [10]: > 100 µM
- GI50 [11]: 55 µM
- GI50 [12]: 24.5 µM
- GI50 [13]: 33.1 µM
- GI50 [14]: 25.1 µM
- GI50 [15]: > 100 µM
- GI50 [16]: 31.6 µM
- GI50 [17]: 25.1 µM
- GI50 [18]: > 100 µM
- GI50 [19]: 20.4 µM
- GI50 [20]: 35.5 µM
- GI50 [21]: > 100 µM
- GI50 [22]: 37.2 µM
- GI50 [23]: > 100 µM
- GI50 [24]: > 100 µM
- GI50 [25]: > 100 µM
- GI50 [26]: > 100 µM
- GI50 [27]: > 100 µM
- GI50 [28]: 25.7 µM
- GI50 [29]: > 100 µM
- GI50 [30]: 32.4 µM
- GI50 [31]: 40.7 µM
- GI50 [32]: 26.3 µM
- GI50 [33]: 22.4 µM
- GI50 [34]: > 100 µM
- GI50 [35]: 24 µM
- GI50 [36]: > 100 µM
- GI50 [37]: 36.3 µM
- GI50 [38]: 28.8 µM
- GI50 [39]: 31.6 µM
- GI50 [40]: 35.5 µM
- GI50 [41]: > 100 µM
- GI50 [42]: 30.9 µM
- GI50 [43]: 42.7 µM
- GI50 [44]: > 100 µM
- GI50 [45]: > 100 µM
- GI50 [46]: 32.4 µM
- GI50 [47]: > 100 µM
- GI50 [48]: > 100 µM
- GI50 [49]: > 100 µM
- GI50 [50]: 31.6 µM
- GI50 [51]: 28.2 µM
- GI50 [52]: > 100 µM
- GI50 [53]: 49 µM
- GI50 [54]: > 100 µM
- GI50 [55]: 29.5 µM
- GI50 [56]: > 100 µM
- GI50 [57]: > 100 µM
- GI50 [58]: 22.4 µM

SMILES: CC(=O)OC(C)(C)/C(C)=C/C(=O)O[C@H]1C(=O)O[C@@H]2C[C@H]3[C@H](C)C(=O)C(O[C@@H]4O[C@H](CO)[C@@H](O)[C@H](O)[C@H]4O)=C[C@]3(C)[C@H]3[C@@H](O)[C@H](O)[C@]4(C(=O)O)OC[C@]32[C@@H]14 [BRUCEOSIDE F]
- GI50 [1]: > 100 µM
- GI50 [2]: > 100 µM
- GI50 [3]: > 100 µM
- GI50 [4]: > 100 µM
- GI50 [5]: > 100 µM
- GI50 [6]: > 100 µM
- GI50 [7]: > 100 µM
- GI50 [8]: > 100 µM
- GI50 [9]: > 100 µM
- GI50 [10]: > 100 µM
- GI50 [11]: > 100 µM
- GI50 [12]: 36.3 µM
- GI50 [13]: 69.2 µM
- GI50 [14]: > 100 µM
- GI50 [15]: > 100 µM
- GI50 [16]: 66.1 µM
- GI50 [17]: 37.2 µM
- GI50 [18]: > 100 µM
- GI50 [19]: 25.7 µM
- GI50 [20]: > 100 µM
- GI50 [21]: > 100 µM
- GI50 [22]: > 100 µM
- GI50 [23]: > 100 µM
- GI50 [24]: > 100 µM
- GI50 [25]: > 100 µM
- GI50 [26]: > 100 µM
- GI50 [27]: > 100 µM
- GI50 [28]: 39.8 µM
- GI50 [29]: > 100 µM
- GI50 [30]: > 100 µM
- GI50 [31]: > 100 µM
- GI50 [32]: 56.2 µM
- GI50 [33]: 27.5 µM
- GI50 [34]: > 100 µM
- GI50 [35]: 56.2 µM
- GI50 [36]: > 100 µM
- GI50 [37]: 43.7 µM
- GI50 [38]: 18.6 µM
- GI50 [39]: > 100 µM
- GI50 [40]: 47.9 µM
- GI50 [41]: > 100 µM
- GI50 [42]: 49 µM
- GI50 [43]: > 100 µM
- GI50 [44]: > 100 µM
- GI50 [45]: > 100 µM
- GI50 [46]: 39.8 µM
- GI50 [47]: > 100 µM
- GI50 [48]: > 100 µM
- GI50 [49]: > 100 µM
- GI50 [50]: > 100 µM
- GI50 [51]: 72.4 µM
- GI50 [52]: > 100 µM
- GI50 [53]: > 100 µM
- GI50 [54]: > 100 µM
- GI50 [55]: 38 µM
- GI50 [56]: > 100 µM
- GI50 [57]: > 100 µM
- GI50 [58]: 33.9 µM

SMILES: CC(C)CC(=O)O[C@H]1C(=O)O[C@@H]2C[C@H]3[C@H](C)C(=O)C(O[C@@H]4O[C@H](CO)[C@@H](O)[C@H](O)[C@H]4O)=C[C@]3(C)[C@H]3[C@@H](O)[C@H](O)[C@]4(C(=O)O)OC[C@]32[C@@H]14 [BRUCEOSIDE E]
- GI50 [1]: > 100 µM
- GI50 [2]: 31.6 µM
- GI50 [3]: > 100 µM
- GI50 [4]: > 100 µM
- GI50 [5]: 39.8 µM
- GI50 [6]: > 100 µM
- GI50 [7]: > 100 µM
- GI50 [8]: > 100 µM
- GI50 [9]: > 100 µM
- GI50 [10]: > 100 µM
- GI50 [11]: 41.7 µM
- GI50 [12]: 20.4 µM
- GI50 [13]: 44.7 µM
- GI50 [14]: 1.91 µM
- GI50 [15]: > 100 µM
- GI50 [16]: 37.2 µM
- GI50 [17]: 10.7 µM
- GI50 [18]: > 100 µM
- GI50 [19]: 36.3 µM
- GI50 [20]: 33.9 µM
- GI50 [21]: > 100 µM
- GI50 [22]: 25.1 µM
- GI50 [23]: > 100 µM
- GI50 [24]: > 100 µM
- GI50 [25]: > 100 µM
- GI50 [26]: > 100 µM
- GI50 [27]: > 100 µM
- GI50 [28]: 24 µM
- GI50 [29]: > 100 µM
- GI50 [30]: > 100 µM
- GI50 [31]: 38.9 µM
- GI50 [32]: 20.4 µM
- GI50 [33]: 28.2 µM
- GI50 [34]: > 100 µM
- GI50 [35]: 22.9 µM
- GI50 [36]: > 100 µM
- GI50 [37]: 24.5 µM
- GI50 [38]: 2.19 µM
- GI50 [39]: 31.6 µM
- GI50 [40]: 41.7 µM
- GI50 [41]: > 100 µM
- GI50 [42]: 33.9 µM
- GI50 [43]: 28.2 µM
- GI50 [44]: > 100 µM
- GI50 [45]: > 100 µM
- GI50 [46]: 27.5 µM
- GI50 [47]: 35.5 µM
- GI50 [48]: > 100 µM
- GI50 [49]: > 100 µM
- GI50 [50]: > 100 µM
- GI50 [51]: 29.5 µM
- GI50 [52]: > 100 µM
- GI50 [53]: > 100 µM
- GI50 [54]: > 100 µM
- GI50 [55]: 33.1 µM
- GI50 [56]: > 100 µM
- GI50 [57]: > 100 µM
- GI50 [58]: 19.1 µM
